Reference: PubChem BioAssay (NCI)
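1) Cells in 96-well plates. 2) Compound, 48 h, 5 concentrations. 3) Linear interpolation between surrounding doses. 4) Unreached endpoint = highest concentration. Here, GI50 denotes the concentration required for 50% inhibition of growth. TGI denotes the concentration required for complete inhibition of growth.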

How the values were obtained:
Assay in all cases: growth of human tumour cells (NCI), 48 h
[1] = system: OVCAR-4 ovarian
[2] = system: OVCAR-5 ovarian
[3] = system: SN12C renal
[4] = system: CCRF-CEM leukemia
[5] = system: HCC-2998 colon
[6] = system: SF-268 CNS
[7] = system: NCI-H460 lung
[8] = system: PC-3 prostate
[9] = system: T-47D breast
[10] = system: DU-145 prostate

CCCOc1ccc(/C=C/c2cc(OC)c(OC)c(OC)c2)cc1
TGI [1]: > 72.9 µM | TGI [2]: 72.9 µM | TGI [3]: > 74 µM | TGI [4]: 24.5 µM | TGI [5]: > 100 µM | TGI [6]: > 100 µM | TGI [7]: > 32.4 µM

COc1cc2c(/C=C3/C(=O)Nc4ccccc43)c(Cl)n(Cc3ccccc3)c2cc1C
GI50 [2]: > 100000 nM | TGI [2]: > 100 µM | GI50 [3]: > 100000 nM | TGI [3]: > 100 µM | GI50 [4]: 29100 nM | TGI [4]: > 100 µM | GI50 [8]: 87900 nM | TGI [8]: > 100 µM | GI50 [6]: > 100 µM | TGI [6]: > 100 µM | GI50 [9]: 41900 nM | TGI [9]: > 100 µM | GI50 [10]: > 100000 nM | TGI [10]: > 100 µM | GI50 [7]: > 100000 nM | TGI [7]: > 100 µM

CC(=O)/C=C1/c2ccccc2N(C(C)=O)C1O (stereo not given)
TGI [1]: > 100 µM | TGI [3]: > 100 µM | TGI [4]: > 100 µM | TGI [5]: > 100 µM | TGI [7]: > 100 µM

O=c1cc/c(=N\Nc2ccccc2)c(=O)/c1=N/Nc1ccccc1
GI50 [1]: > 50 µM | TGI [1]: > 50 µM | GI50 [2]: > 50000 nM | TGI [2]: > 50 µM | GI50 [3]: > 50000 nM | TGI [3]: > 50 µM | GI50 [4]: > 50000 nM | TGI [4]: > 50 µM | GI50 [8]: > 50000 nM | TGI [8]: > 50 µM | GI50 [6]: > 50 µM | TGI [6]: > 50 µM | GI50 [9]: > 50000 nM | TGI [9]: > 50 µM | GI50 [10]: > 50000 nM | TGI [10]: > 50 µM | GI50 [7]: > 50000 nM | TGI [7]: > 50 µM

CN1C(c2ccccc2)CC(=Nc2ccccc2)CC1c1ccccc1 (stereo not given)
TGI [1]: 31 µM | TGI [4]: > 100 µM | TGI [6]: 28.7 µM | TGI [7]: 33.9 µM

COC(=O)c1nc(-c2ccc(Cl)c(Cl)c2)nc2ccccc12
TGI [2]: > 100 µM | TGI [3]: > 100 µM | TGI [4]: > 100 µM | TGI [5]: > 100 µM | TGI [6]: > 100 µM | TGI [7]: > 100 µM

c1ccc(-c2nc(Nc3ccc(-c4nc5ccccc5[nH]4)cc3)nc(N3CCOCC3)n2)cc1
GI50 [1]: 1.68 µM | TGI [1]: 3.08 µM | GI50 [2]: 2160 nM | TGI [2]: 4.02 µM | GI50 [3]: 1740 nM | TGI [3]: 3.83 µM | GI50 [4]: 545 nM | TGI [4]: 3.12 µM | GI50 [8]: 1800 nM | TGI [8]: 3.64 µM | GI50 [6]: 1.64 µM | TGI [6]: 3.24 µM | GI50 [9]: 1620 nM | TGI [9]: 3.82 µM | GI50 [10]: 1210 nM | TGI [10]: 2.49 µM | GI50 [7]: 822 nM | TGI [7]: 2.46 µM

C=CCOc1cc2c(cc1C(C)c1ccc(OC)cc1)OCO2 (stereo not given)
TGI [1]: > 100 µM | TGI [2]: > 100 µM | TGI [3]: > 100 µM | TGI [4]: > 31.7 µM | TGI [8]: > 100 µM | TGI [5]: 12.7 µM | TGI [6]: > 74.3 µM | TGI [10]: > 100 µM

COc1ccc2[nH]c3c(cnn4cnnc34)c2c1
TGI [1]: > 100 µM | TGI [2]: > 100 µM | TGI [3]: > 100 µM | TGI [4]: > 100 µM | TGI [5]: > 100 µM | TGI [6]: > 100 µM | TGI [7]: > 100 µM

Cc1ccc2sc3cc(=O)cc(C)c-3nc2c1
TGI [1]: 52.4 µM | TGI [2]: > 100 µM | TGI [3]: > 100 µM | TGI [4]: 93.8 µM | TGI [5]: > 100 µM | TGI [6]: > 100 µM | TGI [7]: > 100 µM

CCCOc1ccc(/C=C\c2cc(OC)c(OC)c(OC)c2)cc1
TGI [1]: > 100 µM | TGI [2]: 60.9 µM | TGI [3]: > 100 µM | TGI [4]: > 100 µM | TGI [6]: > 100 µM | TGI [7]: > 100 µM

CCOC(=O)c1sc(=S)c2c(C(=O)c3ccccc3)c(C(=O)c3ccccc3)sc2c1C(=O)OCC
GI50 [1]: 9.58 µM | TGI [1]: > 100 µM | GI50 [3]: 3160 nM | TGI [3]: 19.2 µM | GI50 [4]: 2100 nM | TGI [4]: 5.99 µM | GI50 [8]: 3610 nM | TGI [8]: 35.4 µM | GI50 [6]: 3.55 µM | TGI [6]: 71.8 µM | GI50 [9]: 8640 nM | TGI [9]: > 100 µM | GI50 [10]: 4070 nM | TGI [10]: > 100 µM | GI50 [7]: 21000 nM | TGI [7]: > 100 µM

CCCCCCn1c(-c2ccc(C(=O)O/N=C(\N)c3ccc(OC)cc3)cc2)nc(-c2ccccc2)c1-c1ccccc1
GI50 [3]: 1620 nM | TGI [3]: 3.26 µM | GI50 [4]: 506 nM | TGI [4]: 2.85 µM | GI50 [8]: 1670 nM | TGI [8]: 4.16 µM | GI50 [5]: 2090 nM | TGI [5]: 4.81 µM | GI50 [9]: 1940 nM | TGI [9]: 4.89 µM | GI50 [10]: 1020 nM | TGI [10]: 2.22 µM | GI50 [7]: 1850 nM | TGI [7]: 3.93 µM

Cc1cc2c(C(C)C)c(O)c(O)c3coc(/c1=c1/c(C)cc4c(C(C)C)c(=O)c(=O)c5coc1c45)c32
TGI [1]: 22.8 µM | TGI [2]: 32.4 µM | TGI [3]: 23.7 µM | TGI [4]: 16.6 µM | TGI [5]: 14.8 µM | TGI [6]: 24.1 µM | TGI [7]: 16.2 µM

CCc1ccccc1NC(=O)CCc1nc(=S)[nH][nH]1
TGI [1]: > 100 µM | TGI [2]: > 100 µM | TGI [3]: > 100 µM | TGI [4]: > 100 µM | TGI [5]: > 100 µM | TGI [6]: > 100 µM | TGI [7]: > 100 µM

N#Cc1nc(-c2cccc(Br)c2)cc(-c2ccc(Nc3nc(N4CCCCC4)nc(N4CCCCC4)n3)cc2)c1N
GI50 [2]: 2060 nM | TGI [2]: 4.7 µM | GI50 [3]: 2820 nM | TGI [3]: > 100 µM | GI50 [4]: 587 nM | TGI [4]: > 100 µM | GI50 [8]: 1940 nM | TGI [8]: 7.11 µM | GI50 [5]: 2310 nM | TGI [5]: 6.62 µM | GI50 [6]: 3.27 µM | TGI [6]: 21.5 µM | GI50 [9]: 1300 nM | TGI [9]: 4.08 µM | GI50 [10]: 3130 nM | TGI [10]: 10.2 µM | GI50 [7]: 1850 nM | TGI [7]: 3.8 µM

Cc1cc2c(cn1)C(=O)OCC2
TGI [1]: > 100 µM | TGI [2]: > 100 µM | TGI [3]: > 100 µM | TGI [4]: > 100 µM | TGI [5]: > 100 µM | TGI [6]: > 100 µM | TGI [7]: > 100 µM

Cc1ccccc1C(C#N)/C(=N/NC(=O)c1cc2ccccc2cc1O)C(=O)Nc1cccc(Cl)c1 (stereo not given)
TGI [1]: 87.7 µM | TGI [2]: 51.2 µM | TGI [3]: > 100 µM | TGI [4]: > 100 µM | TGI [5]: 78.5 µM | TGI [6]: 90.3 µM | TGI [7]: > 100 µM

C/C(=N\NC(N)=S)c1ccc(/C(C)=N/NC(N)=S)cc1
TGI [2]: > 100 µM | TGI [3]: > 100 µM | TGI [4]: > 100 µM | TGI [5]: > 100 µM | TGI [6]: > 100 µM | TGI [7]: > 100 µM

CCCCCCN1C(=O)/C(=c2\sc3n(c2=O)C2C(NN=3)N(CC)C(=O)N2CC)c2ccccc21 (stereo not given)
GI50 [2]: 2030 nM | TGI [2]: > 50 µM | GI50 [3]: 2740 nM | TGI [3]: > 50 µM | GI50 [4]: 2500 nM | TGI [4]: > 50 µM | GI50 [8]: 2480 nM | TGI [8]: > 50 µM | GI50 [5]: 5830 nM | TGI [5]: > 50 µM | GI50 [9]: 1660 nM | TGI [9]: > 50 µM | GI50 [10]: 2520 nM | TGI [10]: > 50 µM

CC1(C)CCSC(/C=C/c2ccccc2)=N1
TGI [1]: 32.5 µM | TGI [2]: 36.4 µM | TGI [4]: > 100 µM | TGI [8]: 30.5 µM | TGI [6]: 80.3 µM | TGI [10]: > 100 µM | TGI [7]: 24.6 µM
